Measurements taken from patent US5459148A, “Biphenyl derivatives and their use for the treatment of hypertension and cardiac disease” (Sankyo Company, Limited, priority 1992, dated 1995).

Target: T1, AII receptor (Rattus norvegicus, UniProt P25095)
T1 construct: from tissue; host or cells: whole anesthetized male Wister-Imamichi rat (in vivo, blood pressure in the femoral artery)
T1 sequence (P25095 1-359): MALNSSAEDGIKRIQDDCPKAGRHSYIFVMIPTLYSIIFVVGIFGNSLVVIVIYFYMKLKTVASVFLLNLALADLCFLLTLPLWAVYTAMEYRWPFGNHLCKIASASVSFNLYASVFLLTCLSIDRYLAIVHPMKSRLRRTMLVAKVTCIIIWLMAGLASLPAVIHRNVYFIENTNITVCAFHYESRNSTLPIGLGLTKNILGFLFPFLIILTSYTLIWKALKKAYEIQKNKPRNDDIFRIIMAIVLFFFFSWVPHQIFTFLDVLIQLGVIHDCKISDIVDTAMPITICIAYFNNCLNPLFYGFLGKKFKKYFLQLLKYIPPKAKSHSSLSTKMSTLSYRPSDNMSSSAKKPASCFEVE
Experiment: Inhibition of pressor response to intravenous angiotensin II (AII receptor blocking activity)
Assay type: in vivo, rat (male Wister-Imamichi)
Details: 2 min, read-out: ID50 (dose required to inhibit the pressor response to intravenous angiotensin II by fifty percent)
Protocol: Evaluation of AII receptor blocking activity by Inhibition of pressor response to angiotensin II
The biological activity of each compound was assessed by determining the dose required to inhibit the pressor response to intravenous angiotensin II by fifty percent (ID50) in rats. Male Wister-Imamichi rats, each weighing 300 to 400 g, were anesthesized by intraperitoneal injection of 100 mg/Kg of sodium thiobutabarbital [Inactin (trade name)] and two cannulae were inserted: one into the femoral artery for measuring blood pressure and the other into the femoral vein for injecting drugs. […] The percent inhibitions of the pressor response to angiotensin II by progressive increase of the test compound was used to calculate the value of ID50. Angiotensin II was used in this test dissolved in 0.5% bovine serum albumin (BSA) and the test compounds were dissolved in 100% dimethyl sulfoxide (DMSO).

| ED50 [mg/kg] | SMILES |
| --- | --- |
| 0.042 | CCCCc1nc(C(O)C(C)C)c(C(N)=O)n1Cc1ccc(-c2ccccc2C(=O)C(=O)O)cc1 (stereo not shown) [Example 12, 2-Butyl-4-(1-hydroxy-2-methylpropyl)-1-[(2'-oxalobiphenyl-4-yl)methyl]imidazole-5-carboxamide] |
| 0.048 | CCCCc1nc(C(O)C(C)(C)C)c(C(N)=O)n1Cc1ccc(-c2ccccc2C(=O)C(=O)O)cc1 (stereo not shown) [Example 13, 2-Butyl-4-(1-hydroxy-2,2-dimethylpropyl)-1-[(2'-oxalobiphenyl-4-yl)methyl]imidazole-5-carboxamide] |
| 0.0096 | CCOCc1nc(C(C)(C)O)c(C(=O)O)n1Cc1ccc(-c2ccccc2C(=O)C(=O)O)cc1 [Example 14, 2-Ethoxymethyl-4-(1-hydroxy-1-methylethyl)-1-[(2'-oxalobiphenyl-4-yl)methyl]imidazole-5-carboxylic acid] |
| 0.024 | CCc1nc2c(C)cc(C)nc2n1Cc1ccc(-c2ccccc2C(=O)C(=O)O)cc1 [Example 16, 2-Ethyl-5,7-dimethyl-3-(2'-oxalobiphenyl-4-yl)methyl-3H-imidazo[4,5-b]pyridine] |
| 0.026 | CCCc1nc(C(C)(C)O)c(C(=O)O)n1Cc1ccc(-c2ccccc2C(=O)c2nnn[nH]2)cc1 [Example 20, 4-(1-Hydroxy-1-methylethyl)-1-{[2'-(tetrazol-5-ylcarbonyl)biphenyl-4-yl]methyl}-2-propylimidazole-5-carboxylic acid] |

Further lines, the molecule ahead of its results:

| SMILES | ED50 [mg/kg] |
| --- | --- |
| CCCc1nc(C(C)(C)O)c(C(=O)O)n1Cc1ccc(-c2ccccc2C(=O)C(=O)O)cc1 [Example 1, 4-(1-Hydroxy-1-methylethyl)-1-[(2'-oxalobiphenyl-4-yl)methyl]-2-propylimidazole-5-carboxylic acid] | 0.0065 |
| CCCCc1nc(C(C)(C)O)c(C(=O)O)n1Cc1ccc(-c2ccccc2C(=O)C(=O)O)cc1 [Example 2, 2-Butyl-4-(1-hydroxy-1-methylethyl)-1-[(2'-oxalobiphenyl-4-yl)methyl]imidazole-5-carboxylic acid] | 0.026 |
| CCCc1nc(CO)c(C(=O)O)n1Cc1ccc(-c2ccccc2C(=O)C(=O)O)cc1 [Example 6, 4-Hydroxymethyl-1-[(2'-oxalobiphenyl-4-yl)methyl]-2-propylimidazole-5-carboxylic acid] | 0.02 |
| CCCc1nc(C(C)(C)O)c(-c2nnn[nH]2)n1Cc1ccc(-c2ccccc2C(=O)C(=O)O)cc1 [Example 7, {4'-[4-(1-Hydroxy-1-methylethyl)-2-propyl-5-(tetrazol-5-yl)imidazol-1-ylmethyl]biphenyl-2-yl}glyoxylic acid] | 0.021 |
| C=C(C)c1nc(CCC)n(Cc2ccc(-c3ccccc3C(=O)C(=O)O)cc2)c1C(=O)O [Example 8, 4-Isopropenyl-1-[(2'-oxalobiphenyl-4-yl)methyl]-2-propylimidazole-5-carboxylic acid] | 0.06 |
| CCCc1nc(C(C)C)c(C(=O)O)n1Cc1ccc(-c2ccccc2C(=O)C(=O)O)cc1 [Example 9, 4-Isopropyl-1-[(2'-oxalobiphenyl-4-yl)methyl]-2-propylimidazole-5-carboxylic acid] | 0.053 |
| CCCc1nc(C(O)C(C)C)c(C(N)=O)n1Cc1ccc(-c2ccccc2C(=O)C(=O)O)cc1 (stereo not shown) [Example 10, 4-(1-Hydroxy-2-methylpropyl)-1-[(2'-oxalobiphenyl-4-yl)-methyl]-2-propylimidazole-5-carboxamide] | 0.022 |
| CCCc1nc(C(O)C(C)(C)C)c(C(N)=O)n1Cc1ccc(-c2ccccc2C(=O)C(=O)O)cc1 (stereo not shown) [Example 11, 4-(1-Hydroxy-2,2-dimethylpropyl)-1-[(2'-oxalobiphenyl-4-yl)methyl]-2-propylimidazole-5-carboxamide] | 0.017 |
